The text below walks through data of article PMC9541094 (Chemistry (Weinheim an der Bergstrasse, Germany), 2022).

The assay concerns tumor spheroids of MDA-MB-231 cells and murine bone marrow derived macrophages. Kind of assay: 3D co-culture spheroid viability, alamar blue assay. The assay is classed as cell-based, human; murine. The conditions noted are these: doxorubicin 1.25 μM alone.

On to `COc1cccc2c1C(=O)c1c(O)c3c(c(O)c1C2=O)C[C@@](O)(C(=O)CO)C[C@@H]3O[C@H]1C[C@H](N)[C@H](O)[C@H](C)O1` [doxorubicin], for which the “3D spheroid viability versus vehicle control” value is listed as approximately 100%.
